Experimental data from patent US20210254001A1, “FcyRIIIa signaling generates Bcl6+PD1+CD4+ Tfh-like cells” (priority 2020, published 2021).
Entries after “also recorded” stand apart in the source; their conditions may differ.

Tested on: purified human CD4+ T cells
Test: IL-21 production in IC-treated CD4+ T cells with Syk inhibitor
Type: cell-based
Settings: P505 10 nM; cells producing IL-21 from IC treatment; FIG. 4F (A)

With NC(=O)c1cnc(N[C@@H]2CCCC[C@@H]2N)nc1Nc1cccc(-n2nccn2)c1 [P505] the IL-21 production was “IL-21 production is blocked; also recorded: inhibits IL-21 production”.
